The values that follow come from PubChem BioAssay (NCI).

Some test systems named below: A549 NSCLC; COLO 205 colon; HT29 colon; HS 578T breast; A498 renal; HOP-62 NSCLC; SK-MEL-28 melanoma; K-562 leukemia; MCF7 breast; NCI/ADR-RES ovarian.
Test in all cases: DTP human tumour cell line panel, 48 h

Values joined by “and” are separate entries in the source; they are usually repeats but may differ in a detail not shown here. Equal values may be shown once.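 Where inhibition never reached the appropriate level, the endpoint shown equals the highest concentration tested. Otherwise, values were interpolated linearly from a five-concentration, 48-hour dose response in 96-well plates. GI50: concentration for 50% inhibition of growth. Definition used: TGI = concentration required for complete inhibition of growth.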

A word on the TGI: it is the concentration giving total growth inhibition. The term GI50 denotes the concentration giving 50% growth inhibition.

For `CC1(CCC(=O)OC2CCCCC2)OCCO1`, the TGI in the test on A549 NSCLC, in the test with COLO 205 colon, with HT29 colon, in the test with HS 578T breast, in the test with A498 renal and in the test with HOP-62 NSCLC was > 100000 nM in each case. In addition, the concentration for total growth inhibition (TGI) with SK-MEL-28 melanoma, with K-562 leukemia, in the test with MCF7 breast and in the test on NCI/ADR-RES ovarian was > 100000 nM in each case.
Take `O=C1C=CC(=O)c2cc(Sc3ccccc3)c(=O)ccc21`: the TGI amounted to 39500 nM in the test with A549 NSCLC; 24900 nM in the test on COLO 205 colon; 41600 nM in the test with HT29 colon; 64800 nM with HS 578T breast; 31400 nM with A498 renal; 47300 nM in the test on HOP-62 NSCLC. The total growth inhibition concentration (TGI) was found to be 35100 nM in the test on SK-MEL-28 melanoma, 8750 nM with K-562 leukemia, 23900 nM with MCF7 breast and 42100 nM in the test on NCI/ADR-RES ovarian.
With `COc1ccc(C(=O)c2cc3c(N)c(C(=O)Nc4ccc(C)cc4)sc3nc2C)cc1`, the GI50 in the test on A549 NSCLC is 3960 nM; in the test with COLO 205 colon, 3470 nM; in the test on HT29 colon, 2740 nM; in the test with HS 578T breast, 2290 nM; with A498 renal, 1500 nM; in the test with HOP-62 NSCLC it was 4430 nM. Besides, the GI50 was 13600 nM in the test on SK-MEL-28 melanoma, 1280 nM in the test on K-562 leukemia, 1430 nM with MCF7 breast and 2550 nM in the test on NCI/ADR-RES ovarian. The TGI in the test with A549 NSCLC is > 100000 nM; in the test on COLO 205 colon, > 100000 nM; with HT29 colon, 15200 nM; with HS 578T breast it was 17900 nM; with A498 renal it was 9590 nM; in the test with HOP-62 NSCLC, 31500 nM. In addition, the TGI in the test with SK-MEL-28 melanoma was > 100000 nM; in the test on K-562 leukemia, > 100000 nM; in the test on MCF7 breast, > 100000 nM; in the test on NCI/ADR-RES ovarian, 15400 nM.
As for `CC(C)(C)[Si](C)(C)OC1[C@@H](O[Si](C)(C)C(C)(C)C)[C@@H](CNC(=O)NC(=O)CCl)O[C@H]1n1cnc2c(NC(=O)Nc3ccccc3)ncnc21` (some centres not stated), the GI50 in the test on A549 NSCLC was 1190 nM; in the test on COLO 205 colon, 1410 nM; in the test with HT29 colon, 330 nM; in the test on HS 578T breast it was 1300 nM; in the test on A498 renal it was 902 nM; with HOP-62 NSCLC it was 348 nM. Besides, the GI50 in the test with SK-MEL-28 melanoma was 916 nM; in the test with K-562 leukemia, 1090 nM; in the test with MCF7 breast, 760 nM; in the test on NCI/ADR-RES ovarian, 1240 nM. Also, the TGI with A549 NSCLC amounted to 3510 nM; with COLO 205 colon it was 3500 nM; in the test on HT29 colon, 1050 nM; in the test with HS 578T breast, 12500 nM; with A498 renal, 2110 nM; in the test with HOP-62 NSCLC it was 953 nM. In addition, the TGI in the test on SK-MEL-28 melanoma amounted to 1690 nM; in the test on K-562 leukemia, 3380 nM; with MCF7 breast, 1620 nM; in the test with NCI/ADR-RES ovarian, 8030 nM.
`CCN(CC)CCCNC(=O)c1c2c(n3ccccc13)C(=O)c1ncccc1C2=O`: the GI50 is 1170 nM with A549 NSCLC; 123 nM with COLO 205 colon; 248 nM with HT29 colon; 2460 nM in the test on HS 578T breast; 1660 nM with A498 renal; 586 nM in the test with HOP-62 NSCLC. For the same compound, the GI50 was 2490 nM in the test on SK-MEL-28 melanoma, 916 nM with K-562 leukemia, 298 nM with MCF7 breast and 3020 nM in the test on NCI/ADR-RES ovarian. Moreover, the TGI with A549 NSCLC is 2840 nM; in the test on COLO 205 colon, 399 nM; in the test with HT29 colon, 1540 nM; in the test on HS 578T breast, 7300 nM; in the test with A498 renal it was 3270 nM; in the test on HOP-62 NSCLC, 2780 nM. Besides, the total growth inhibition concentration (TGI) was 8640 nM in the test on SK-MEL-28 melanoma, > 100000 nM in the test on K-562 leukemia, 1760 nM with MCF7 breast and 23400 nM with NCI/ADR-RES ovarian.
With `Cc1sc2c(c1C)C(c1ccc(Cl)cc1)=N[C@@H](CC(=O)OC(C)(C)C)c1nnc(C)n1-2`, the GI50 is 730 nM and 312 nM in the test on A549 NSCLC; 378 nM and 143 nM with COLO 205 colon; 209 nM and 98.6 nM with HT29 colon; 139 nM and 56.7 nM in the test on HS 578T breast; 267 nM and 61.7 nM with A498 renal; 253 nM and 121 nM in the test with HOP-62 NSCLC. The GI50 in the test with SK-MEL-28 melanoma is 1980 nM and 397 nM; with MCF7 breast it was 117 nM and 60 nM; with NCI/ADR-RES ovarian it was 506 nM and 396 nM. The concentration for total growth inhibition (TGI) in the test with A549 NSCLC is 21800 nM and 15300 nM; with COLO 205 colon, 11700 nM and 3800 nM; with HT29 colon, 14900 nM; in the test with HS 578T breast it was 18400 nM and 18100 nM; in the test on A498 renal it was 1460 nM and 1150 nM; in the test on HOP-62 NSCLC, 17100 nM and 16400 nM. The TGI in the test with SK-MEL-28 melanoma was 20200 nM and 15200 nM; in the test with K-562 leukemia, 37500 nM and 15700 nM; in the test on MCF7 breast, 17900 nM and 13600 nM; with NCI/ADR-RES ovarian it was 24000 nM and 20900 nM.
Regarding `CN1C(=O)N[C@H]2[C@@H]3NC(=O)c4ccc(Br)n4[C@@H]3C[C@]21O`, the GI50 is 270 nM with A549 NSCLC; 83.2 nM in the test with COLO 205 colon; 95.6 nM with HT29 colon; 102 nM in the test with HS 578T breast; 270 nM with A498 renal; 117 nM in the test with HOP-62 NSCLC. Moreover, the GI50 with SK-MEL-28 melanoma was 31.7 nM; in the test on K-562 leukemia, 82.7 nM; with MCF7 breast, 28.1 nM; in the test on NCI/ADR-RES ovarian it was 386 nM. The TGI in the test with A549 NSCLC was 4470 nM; in the test with COLO 205 colon, 1180 nM; with HT29 colon it was 2290 nM; in the test on HS 578T breast it was 1420 nM; with A498 renal, 1170 nM; with HOP-62 NSCLC, 1090 nM. For the same compound, the TGI in the test on SK-MEL-28 melanoma came to 262 nM; with K-562 leukemia it was 1430 nM; in the test on MCF7 breast, 1080 nM; in the test on NCI/ADR-RES ovarian it was 2220 nM.
`CCC(CNc1cc(OC)cc2cccnc12)NC1CCCCC1` (configuration not stated): the GI50 was 63300 nM in the test with A549 NSCLC; 11300 nM in the test on COLO 205 colon; 15200 nM in the test on HS 578T breast; 29700 nM with A498 renal; 66000 nM in the test with HOP-62 NSCLC; 25600 nM with SK-MEL-28 melanoma. Further, the GI50 was 7680 nM in the test with K-562 leukemia, 20700 nM in the test with MCF7 breast and 35300 nM with NCI/ADR-RES ovarian. In addition, the concentration for total growth inhibition (TGI) in the test on A549 NSCLC is > 100000 nM; in the test with COLO 205 colon it was 24600 nM; with HS 578T breast it was 95600 nM; in the test on A498 renal, > 100000 nM; with HOP-62 NSCLC, > 100000 nM; in the test on SK-MEL-28 melanoma, 64700 nM. The figures for the TGI with K-562 leukemia, in the test on MCF7 breast and in the test with NCI/ADR-RES ovarian were 53800 nM, > 100000 nM and > 100000 nM, respectively.
